For 2 compounds, IC50 and ED50 results are on record in patent US8053442B2, “Organic compounds” (Novartis AG, priority 2008, dated 2011).

The test system of experiment [1] is Plasmodium falciparum, NF54 (sensitive to all known drugs). In words: In vitro assay, 3H-hypoxanthine incorporation, Plasmodium falciparum NF54. The conditions noted are these: NF54 (CQ sensitive P. falciparum strain). The class given is cell-based. As to the method:
The compounds of the invention and standard compounds are tested in vitro against two standard parasite strains: Plasmodium falciparum, NF54 (sensitive to all known drugs) and Plasmodium falciparum, K1 (chloroquine and pyrimethamine resistant). Chloroquine diphosphate (Sigma C6628), artemisinin (Sigma 36159-3), artesunate (Mepha), atovaquone (GSK) and proguanil (Roche) are used as the standard drugs. The testing is carried out in 96-well plates (Costar™ 96-well microtiter plates).
Smears of the stock cultures of the two strains are prepared and the parasitemia for each culture is determined. Cultures with parasitemia lower than 2% are not used.
Stock compound solutions are prepared in DMSO at 10 mg/mL. If insoluble in DMSO, other solvents may be used according to the recommendations of the supplier. […]
The plates are harvested with a Betaplate™ cell harvester (Wallac, Zurich, Switzerland), which transfers the red blood cells onto a glass fiber filter and washes the filters with distilled water. The dried filters are inserted into a plastic foil with 10 mL of scintillation fluid and counted in a Betaplate™ liquid scintillation counter (Wallac, Zurich, Switzerland). The results are recorded as counts per minute (cpm) per well at each drug concentration.
Data is transferred into a graphic programme (e.g. EXCEL) and expressed as percentage of the untreated controls. […]

For experiment [2], the system named is Plasmodium berghei, GFP ANKA strain. In words: In vivo assay, P. berghei mouse model. The conditions noted are these: read-out: ED50 in P. berghei mouse model. The protocol: The Plasmodium berghei, GFP ANKA strain described in B. Franke-Fayard et al., Mol. Biochem. Parasitol., 137(1), 23-33, 2004 is used. This strain is maintained in female NMRI mice (20-22 g). The mice are kept in Standard Macrolon cages type II under standard conditions at 22° C. and 60-70% relative humidity, on a diet of pellets (PAB45—NAFAG 9009, Provimi Kliba AG, CH-4303 Kaiseraugst, Switzerland) and water ad libitu. Chloroquine (Sigma C6628) and artemisinin (Sigma 36, 159-3) are used as the standard drugs.
Stock compound solutions are prepared in 100% DMSO (suspended) or a solution consisting of 70% Tween-80 (d=1.08 g/mL) and 30% ethanol (d=0.81 g/mL), followed by a 10-fold dilution in H2O. […]
On days 1, 2 and 3 (24, 48 and 72 hours post-infection), the experimental groups are treated with a single daily dose per oral dosing (p.o). […] The dosage is determined by a preliminary toxicity test. […]
On day 4, 24 hours after the last drug treatment, 1 μL tail blood is taken and dissolved in 1 mL PBS buffer. Parasitaemia is determined with a FACScan (Becton Dickinson) by counting 100,000 red blood cells. The difference between the mean value of the control group and those of the experimental groups is calculated and expressed as a percentage relative to the control group (=activity). […] The survival of the animals is monitored for up to 30 days. […]

pIC50: −log10 of the molar value.

Usually pIC50 stands for the negative decadic logarithm of the IC50, by convention in mol/L. Higher therefore signals a small IC50. The term ED50 denotes the midpoint of the dose-response relation. As to `C[C@H]1Cc2c([nH]c3ccc(Cl)cc23)[C@@]2(N1)C(=O)Nc1ccc(Cl)cc12` [Example 62, (1R,3S)-5′,6-Dichloro-3-methyl-2,3,4,9-tetrahydrospiro[β-carboline-1,3′-indol]-2′(1′H)-one], the negative logarithm of the IC50 (pIC50) in experiment [1] was 8.47. Besides, the ED50 in experiment [2] was 1.5 mg/kg.

Consider `C[C@@H]1Cc2c([nH]c3cc(Cl)c(F)cc23)[C@]2(N1)C(=O)Nc1ccc(Cl)cc12` [Example 50, (1S,3R)-5′,7-Dichloro-6-fluoro-3-methyl-2,3,4,9-tetrahydrospiro[β-carboline-1,3′-indol]-2′(1′H)-one], for which the pIC50 in experiment [1] is 9.05. Besides, the ED50 in experiment [2] was found to be 1.2 mg/kg.
